Assays:
coagulation factor Xa = conditions: cited from earlier work
hOCT-2 transporters = conditions: in vitro findings; ref data on file, Bristol-Myers Squibb, Princeton, NJ, USA; cited from earlier work
[1] = Stability of apixaban in human plasma; type: in vitro ADME; conditions: at −20°C
[2] = type: in vivo, human
[3] = type: in vivo, human; remark: listed apart in the source
[4] = compound lacks ionizable groups; cited from earlier work
[5] = cited from earlier work
[6] = tested on: breast cancer resistance protein; conditions: cited from earlier work
P-glycoprotein = conditions: apixaban: ref not given; famotidine: ref 20; cited from earlier work
[7] = tested on: human organic cation transporter (hOCT)-3; conditions: cited from earlier work
hOCT-2 = conditions: cited from earlier work
hOCT-1 = conditions: cited from earlier work
gastric pH = conditions: cited from earlier work
[8] = cited from earlier work; remark: listed apart in the source

**Q.** Which results are given for `COc1ccc(-n2nc(C(N)=O)c3c2C(=O)N(c2ccc(N4CCCCC4=O)cc2)CC3)cc1` [Apixaban, 1-(4-methoxyphenyl)-7-oxo-6-(4-(2-oxopiperidin-1-yl)phenyl)-4,5,6,7-tetrahydro-1H-pyrazolo[3,4-c]pyridine-3-carboxamide]?
**A.** Factor Xa inhibition (description) (coagulation factor Xa): potent, reversible, direct, and highly selective inhibitor; hOCT-2 substrate (hOCT-2 transporters): not a substrate; Stability in human plasma [1]: at least 589 days; Deaths, serious adverse events, discontinuations, bleeding-related adverse events ([2]; 18 healthy subjects, both treatment periods): No deaths, serious adverse events, discontinuations due to adverse events, or clinically relevant bleeding-related adverse events; Tolerability ([2]; apixaban 10 mg alone and with famotidine 40 mg, healthy subjects): well tolerated; AUC(0-inf) ([3]; both, human, plasma, po, 10 mg): 2220 ng·h/mL; AUC(0-t) ([3]; both, human, plasma, po, 10 mg): 2190 ng·h/mL; Cmax ([3]; both, human, plasma, po, 10 mg): 230 ng/mL; half-life ([3]; both, human, plasma, po, 10 mg): 9.2 h; Predose period 2 apixaban concentration as fraction of Cmax ([3]; six subjects with measurable predose concentrations): < 1.5%; Aqueous solubility dependence on pH [4]: not affected by changes in pH; Effect of food on apixaban exposure [5]: no relevant effect; Renal excretion as share of total clearance [5]: approximately 27%; Elimination half-life ([5]; clinical studies): approximately 12 hours; Oral bioavailability ([5]; clinical studies): approximately 50%; Breast cancer resistance protein substrate [6]: substrate; P-glycoprotein substrate (P-glycoprotein): substrate

**Q.** For `NC(N)=Nc1nc(CSCCC(N)=NS(N)(=O)=O)cs1` [famotidine], which “Inhibition of hOCT-3” value [7] is on record?
**A.** The value was “potent inhibitor”.

**Q.** What about the “Inhibition of hOCT-2” value (hOCT-2) of the same compound?
**A.** Its value is “moderate inhibitor”.

**Q.** And the “Inhibition of hOCT-1” value (hOCT-1)?
**A.** Its value is “moderate inhibitor”.

**Q.** And the “Effect of coadministration on apixaban Cmax, AUC0–T, or AUC∞” value ([3]; famotidine 40 mg 3 hours before apixaban 10 mg, healthy subjects)?
**A.** The value was “no effect”.

**Q.** What about the “Time for gastric pH to return to baseline after cessation of administration” value (gastric pH) of the same compound?
**A.** The value was 10–12 hours.

**Q.** What about the “Time of maximal increases in gastric pH post-dose” value (gastric pH) of the same compound?
**A.** The value was 1–3 hours.

**Q.** And the Metabolism [8]?
**A.** Its Metabolism is “minimally metabolized”.

**Q.** And the “Potential for CYP-mediated drug–drug interactions” value [8]?
**A.** The value was “minimal potential”.

**Q.** And the “Time of maximal plasma concentrations after oral administration” value [8]?
**A.** The value was 2 to 3 h.

**Q.** What about the P-glycoprotein substrate (P-glycoprotein) of the same compound?
**A.** Its P-glycoprotein substrate is “substrate”.
